IC50 data for 13 compounds are collected here from patent US8987242B2, “Morpholinone compounds as factor IXA inhibitors” (Merck Sharp & Dohme Corp., priority 2008, dated 2015).

Counter-ions that a name gives are not always drawn.

The target of one assay is human factor IXa (Homo sapiens (Human), UniProt P00740). The experiment in a line: Determination of inhibitory activity against factor IXa (SPECTROFLUOR FIXa fluorogenic substrate enzyme assay). In kind it is biochemical. Conditions: human factor IXa 2.0 μg/ml, SPECTROFLUOR FIXa 100 μM, 60 minutes at room temperature, pH 8.0; read-out: Factor IXa enzyme assay IC50. As for the experimental part: Inhibitory activity against factor IXa was tested using the substrate SPECTROFLUOR FIXa (american diagnostica inc.; 500 West Avenue, Stamford, Conn. 06902 USA; Pr. No. 299F) and human factor IXa (american diagnostica inc.; Pr. No. 449b). Test substances dissolved in buffer A (50 mM α,α,α-tris(hydroxymethyl)methylamine (Tris), 100 mM NaCl, 5 mM CaCl2, 15% (v/v) ethylene glycol, pH 8.0) were mixed with factor IXa (2.0 μg/ml final concentration). The enzyme reaction was started by addition of SPECTROFLUOR FIXa (100 μM final concentration). After incubation for 60 minutes at room temperature, the reaction was stopped by the addition of 20% (v/v) acetic acid solution, and then measured the fluorescence value (Excitation Wavelength: 355 nm, Emission Wavelength; 460 nm) in a microtiter plate reader (ARVO 1420 Multilabel Counter; PerkinElmer).
Chain of human factor IXa (P00740 227-461): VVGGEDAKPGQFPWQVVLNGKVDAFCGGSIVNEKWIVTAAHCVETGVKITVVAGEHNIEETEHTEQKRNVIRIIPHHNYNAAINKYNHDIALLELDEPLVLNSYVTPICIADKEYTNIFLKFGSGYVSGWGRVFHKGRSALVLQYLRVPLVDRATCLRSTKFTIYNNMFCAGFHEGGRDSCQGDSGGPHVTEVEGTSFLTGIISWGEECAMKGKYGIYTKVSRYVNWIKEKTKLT
Chain of human factor IXa (P00740 47-191 partner): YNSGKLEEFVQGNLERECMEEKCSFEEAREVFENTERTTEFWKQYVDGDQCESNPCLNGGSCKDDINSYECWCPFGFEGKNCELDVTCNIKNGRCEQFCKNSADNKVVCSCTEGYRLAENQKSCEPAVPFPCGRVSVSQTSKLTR
The IC50 was calculated from a dilution series of the test substance with the aid of the software, Symix Assay Explorer (Symyx Technologies, Inc.).
One may read the IC50 as the point on the concentration scale where inhibition reaches its midpoint. For `N#Cc1ccccc1N1CCO[C@H]([C@@H](O)C(=O)Nc2ccc3c(c2)CNC3=N)C1=O` [Example aa142, 4-(2-Cyanophenyl)-N-(2,3-dihydro-1-imino-1h-isoindol-5-yl)-alpha(R)-hydroxy-3-oxo-2(R)-morpholine acetamide], the IC50 was 66 nM.

For `N=C1NCc2cc(NC(=O)[C@H](O)[C@H]3OCCN(c4ccc(F)c(C(=O)N5CCOCC5)c4)C3=O)ccc21` [Example aa144, N-(2,3-Dihydro-1-imino-1h-isoindol-5-yl)-4-[4-fluoro-3-(4-morpholinylcarbonyl)phenyl]-alpha(R)-hydroxy-3-oxo-2(R)-morpholineacetamide], the IC50 came to 13 nM. On the same count and under the same terms, the result for `Nc1noc2cc(NC(=O)[C@H](O)[C@H]3OCCN(c4ccc(S(F)(F)(F)(F)F)cc4)C3=O)ccc12` [Example aa151, [4-[2(R)-[2-[(3-Amino-1,2-bcnzisoxazol-6-yl)amino]-1(R)-hydroxy-2-oxoethyl]-3-oxo-4-morpholinyl]phenyl] pentafluorosulfur] reads 380 nM; that for `Nc1noc2cc(NC(=O)[C@H](O)[C@H]3OCCN(c4ccc(F)c(C(=O)N5CCOCC5)c4)C3=O)c(F)cc12` [Example aa152, N-(3-Amino-5-fluoro-1,2-benzisoxazol-6-yl)-4-[4-fluoro-3-(4-morpholinylcarbonyl)phenyl]-alpha(R)-hydroxy-3-oxo-2(R)-morpholineacetamide], 1200 nM.

The same assay, now with this note: human factor IXa 2.0 μg/ml, SPECTROFLUOR FIXa 100 μM, 60 minutes at room temperature, pH 8.0; read-out: Factor IXa enzyme assay IC50 [micro M].
As for `Cc1ccc(N2CCOC(C(O)C(=O)Nc3ccc4c(N)nccc4c3)C2=O)cc1` (stereo not shown) [Example 1, N-(1-aminoisoquinolin-6-yl)-2-hydroxy-2-(3-oxo-4-p-tolylmorpholin-2-yl)acetamide trifluoroacetate], the IC50 was found to be 40 nM.

For the compound `Cc1ccc(N2CCOC(C(O)C(=O)Nc3ccc(C(=N)N)cc3)C2=O)cc1` (stereo not shown) [Example 2, N-(4-amidinophenyl)-2-hydroxy-2-(3-oxo-4-p-tolylmorpholin-2-yl)acetamide trifluoroacetate], the IC50 turned out to be 30 nM.

For `N=C(N)c1ccc(NC(=O)[C@H](O)[C@H]2OCCN(c3ccc(C4CCCCC4)cc3)C2=O)cc1` [Example 15, (2R)—N-(4-amidinophenyl)-2-[(2R)-4-(4-cyclohexylphenyl)-3-oxomorpholin-2-yl]-2-hydroxyacetamide hydrochloride], the IC50 came to 20 nM. Still for that read-out and setting: the result for `N=C(N)c1ccc(NC(=O)[C@H](O)[C@H]2OCCN(c3cccc(NC(=O)CO)c3)C2=O)cc1` [Example 50, (2R)—N-(4-amidinophenyl)-2-hydroxy-2-[(2R)-4-[3-[(2-hydroxyacetyl)amino]phenyl]-3-oxomorpholin-2-yl]acetamide hydrochloride] reads 20 nM. Same read-out and setting: the same measure for `Cc1ccc(N2CCO[C@H]([C@@H](O)C(=O)Nc3ccc4c(N)nccc4c3)C2=O)cc1` [Example 62, (2R)—N-(1-aminoisoquinolin-6-yl)-2-hydroxy-2-[(2R)-3-oxo-4-p-tolylmorpholin-2-yl]acetamide hydrochloride]: 20 nM. Still for that read-out and setting: the result for `CC(C)(C)c1ccc(N2CCO[C@H]([C@@H](O)C(=O)Nc3ccc(C(=N)N)cc3F)C2=O)cc1` [Example 67, (2R)—N-(4-amidino-2-fluorophenyl)-2-[(2R)-4-(4-tert-butylphenyl)-3-oxomorpholin-2-yl]-2-hydroxyacetamide acetate] reads 60 nM. In the case of `CS(=O)(=O)c1ccccc1-c1ccc(N2CCO[C@H]([C@@H](O)C(=O)Nc3ccc(C(=N)N)cc3)C2=O)cc1` [Example 105, (2R)—N-(4-amidinophenyl)-2-hydroxy-2-[(2R)-4-[4-(2-methylsulfonylphenyl)phenyl]-3-oxomorpholin-2-yl]acetamide hydrochloride], the IC50 amounted to 10 nM. On the same count and under the same terms, the result for `CC(=O)N1CCN(c2ccc(C)cc2)C(=O)C1C(O)C(=O)Nc1ccc2c(N)nccc2c1` (stereo not shown) [Example 109, 2-[1-acetyl-3-oxo-4-(p-tolyl)piperazin-2-yl]-N-(1-amino-6-isoquinolyl)-2-hydroxy-acetamide trifluoroacetate] reads 60 nM; that for `Cc1ccc(N2CCCO[C@H]([C@@H](O)C(=O)Nc3ccc(C(=N)N)cc3)C2=O)cc1` [Example 114, (2R)—N-(4-amidinophenyl)-2-hydroxy-2-[(2R)-3-oxo-4-(p-tolyl)-1,4-oxazepan-2-yl]acetamide hydrochloride], 30 nM.
